Data on 16 compounds can be found in US9187465B2, “Oxazole tyrosine kinase inhibitors” (Sareum Limited, priority 2007, dated 2015).

Molecules are shown by their SMILES. pIC50: −log10 of the molar value. Bounds are passed on as bounds.

The target in test [1] is T1, human FLT4 (Homo sapiens, UniProt P35916).
T1 construct: a construct expressing the human FLT4 (789-1207) with an amino terminal GST tag; host or cells: Sf9 insect cells (baculovirus)
As to the kind of experiment: FLT4 kinase assay (DELFIA enzyme inhibition). Particulars: read-out: FLT4 IC50. It counts as biochemical. The method in brief: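 GST-tagged human FLT4 (789-1207) from Sf9 cells phosphorylates a biotinylated MET (Tyr1253)-derived peptide for 30 min at room temperature, stopped with EDTA. Phosphopeptide is captured on Neutravidin and detected with Eu-labelled anti-phosphotyrosine antibody by time-resolved fluorescence; IC50 from % inhibition curves.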

Test [2] concerns the target T2, human FLT3 (Homo sapiens, UniProt P36888).
T2 construct: a construct expressing the human FLT3 (564-993) with an amino terminal GST tag; host or cells: Sf9 insect cells (baculovirus)
T2 sequence (P36888 564-993): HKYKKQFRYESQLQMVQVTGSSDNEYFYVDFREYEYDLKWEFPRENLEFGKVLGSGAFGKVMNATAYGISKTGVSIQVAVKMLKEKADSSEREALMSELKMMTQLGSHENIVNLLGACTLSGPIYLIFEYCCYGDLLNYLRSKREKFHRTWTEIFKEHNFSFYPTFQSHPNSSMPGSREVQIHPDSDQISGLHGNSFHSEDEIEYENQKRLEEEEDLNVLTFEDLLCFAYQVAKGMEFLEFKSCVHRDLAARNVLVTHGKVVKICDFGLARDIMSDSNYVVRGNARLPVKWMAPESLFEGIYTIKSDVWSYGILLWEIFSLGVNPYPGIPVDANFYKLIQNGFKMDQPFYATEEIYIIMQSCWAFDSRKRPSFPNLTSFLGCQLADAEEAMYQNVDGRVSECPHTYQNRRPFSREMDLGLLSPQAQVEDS
The test can be described thus: FLT3 kinase assay (DELFIA enzyme inhibition). It counts as biochemical. In a few lines:
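GST-tagged human FLT3 (564-993), expressed in sf9 cells, phosphorylated a biotinylated Gastrin Precursor (Tyr 87)-derived peptide for 30 min at room temperature before EDTA stop. The captured peptide was detected by Eu-labelled anti-phosphotyrosine DELFIA time-resolved fluorescence. IC50 was derived from % inhibition curves.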

For test [3], the system named is A549 human lung carcinoma cells. The test can be described thus: Anti-proliferative activity, Alamar Blue assay, A549. It counts as cell-based. The conditions noted are these: A549, 72 h, read-out: cell growth IC50. As to the method:
(§1) The anti-proliferative activities of compounds of the invention are determined by measuring the ability of the compounds to inhibition of cell growth in a number of cell lines. Inhibition of cell growth is measured using the Alamar Blue assay (Nociari et al., Journal of Immunological Methods (1998) 213, 157-167). The method is based on the ability of viable cells to reduce resazurin to its fluorescent product resorufin. For each proliferation assay cells are plated onto 96 well plates and allowed to recover for 16 hours prior to the addition of inhibitor compounds for a further 72 hours. At the end of the incubation period 10% (v/v) Alamar Blue is added and incubated for a further 6 hours prior to determination of fluorescent product at Excitation 535 nm and Emission 590 nm. In the case of the non-proliferating cell assay cells are maintained at confluence for 96 hour prior to the addition of inhibitor compounds for a further 72 hours. The number of viable cells is determined by Alamar Blue assay as before. All cell lines are obtained from ECACC (European Collection of cell Cultures).

Test [4] concerns HCT116 cells. As to the kind of experiment: Anti-proliferative activity, Alamar Blue assay, HCT116. It counts as cell-based. The conditions noted are these: Homo sapiens, HCT-116, 72 hours, read-out: cell proliferation IC50. As to the method:
as §1
(In general: The colour change of resazurin is a common sign of viable cells or microbes.)

The target in test [5] is T3, human Aurora A (Homo sapiens, UniProt O14965).
T3 construct: Histidine tag (N); host or cells: Sf9 insect cells (baculovirus)
T3 sequence (O14965 1-403): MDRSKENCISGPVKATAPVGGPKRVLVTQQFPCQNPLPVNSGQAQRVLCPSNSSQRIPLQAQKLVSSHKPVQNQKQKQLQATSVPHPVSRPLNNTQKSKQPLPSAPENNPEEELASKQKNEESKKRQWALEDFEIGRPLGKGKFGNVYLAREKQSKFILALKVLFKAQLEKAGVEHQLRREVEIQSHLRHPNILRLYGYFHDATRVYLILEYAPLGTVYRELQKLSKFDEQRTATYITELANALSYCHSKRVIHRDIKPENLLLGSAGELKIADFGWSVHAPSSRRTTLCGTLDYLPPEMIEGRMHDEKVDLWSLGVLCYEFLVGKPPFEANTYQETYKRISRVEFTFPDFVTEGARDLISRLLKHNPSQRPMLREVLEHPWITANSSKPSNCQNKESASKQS
The test can be described thus: Aurora A kinase assay (DELFIA enzyme inhibition). The class given is biochemical. Particulars: read-out: Aurora A IC50. The method in brief: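 DELFIA read-out (time-resolved Eu fluorescence, 620 nm emission) after Neutravidin capture of biotinylated peptide substrate and antibody detection. Reaction: Ni-agarose-purified Aurora A, 30 min at room temperature, stopped with 100 mM EDTA.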

In test [6] the test system is treatment-refractory primary Acute Myelogenous Leukemia (AML) cells. Particulars: treatment-refractory cells from patients; cited from earlier work.
The test system of test [7] is SW620, HCT-116, Colo205, A549, Calu-6 or HL-60 tumour xenografts. The conditions noted are these: cited from earlier work.

T1 sequence (P35916 789-1207): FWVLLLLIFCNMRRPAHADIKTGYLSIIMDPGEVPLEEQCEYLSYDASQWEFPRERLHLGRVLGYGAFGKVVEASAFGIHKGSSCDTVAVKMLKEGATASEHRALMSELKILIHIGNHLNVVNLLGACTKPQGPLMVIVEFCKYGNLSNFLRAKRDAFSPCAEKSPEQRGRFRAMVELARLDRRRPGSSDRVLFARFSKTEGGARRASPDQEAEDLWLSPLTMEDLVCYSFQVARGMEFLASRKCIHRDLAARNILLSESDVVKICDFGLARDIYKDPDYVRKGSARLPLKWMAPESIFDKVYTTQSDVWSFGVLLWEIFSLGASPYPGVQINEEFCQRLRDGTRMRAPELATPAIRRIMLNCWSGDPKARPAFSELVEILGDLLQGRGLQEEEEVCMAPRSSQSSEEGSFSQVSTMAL

As to `NC(=O)c1nc(-c2c(F)cccc2Cl)oc1-c1ccc(N2CCNCC2)cc1` [Example G-5, 2-(2-chloro-6-fluorophenyl)-5-(4-(piperazin-1-yl)phenyl)oxazole-4-carboxamide], the pIC50 in test [1], in test [2], in test [3], in test [4] and in test [5] was above 5.00 in each case.
In the case of `NC(=O)c1nc(-c2c(F)cccc2F)oc1Nc1ccc(S(=O)(=O)N2CCCCC2)cc1` [Example Q-28, 2-(2,6-difluorophenyl)-5-(4-(piperidin-1-ylsulfonyl)phenylamino)oxazole-4-carboxamide], the pIC50 in test [1] is above 5.00; in test [2], above 4.00; in test [3], above 5.00; in test [5] it was above 4.00.
On to `CN1CCN(C(=O)c2ccc(Nc3oc(-c4c(F)cccc4Cl)nc3C(N)=O)cc2)CC1` [Example Q-57], for which the pIC50 in test [1], in test [2], in test [3], in test [4] and in test [5] was above 5.00 each time.
On to `Cc1cc(Nc2cc(N3CCN(C)CC3)nc(Sc3ccc(NC(=O)C4CC4)cc3)n2)n[nH]1` [VX-680], for which the “killing of primary AML cells” value in test [6] was “potently killed”.
As for `NC(=O)c1nc(-c2cccc3[nH]ncc23)oc1-c1ccc(N2CCNCC2)cc1` [Example M-17, 2-(1H-indazol-4-yl)-5-(4-(piperazin-1-yl)phenyl)oxazole-4-carboxamide], the pIC50 in test [1], in test [2], in test [3], in test [4] and in test [5] was above 5.00 in each case.
As for `NC(=O)c1nc(-c2c(F)cccc2Cl)oc1Nc1ccc(N2CCNCC2)cc1` [Example Q-36, 2-(2-chloro-6-fluorophenyl)-5-(4-(piperazin-1-yl)phenylamino)oxazole-4-carboxamide], the pIC50 in test [1], in test [2], in test [3], in test [4] and in test [5] was above 5.00 in each case.
As to `NC(=O)c1nc(-c2c(F)cccc2F)oc1Nc1ccc(N2CCNCC2)cc1` [Example Q-11, 2-(2,6-difluorophenyl)-5-(4-(piperazin-1-yl)phenylamino)oxazole-4-carboxamide], the pIC50 in test [1], in test [2], in test [3], in test [4] and in test [5] was above 5.00 each time.
For `NC(=O)c1nc(-c2c(F)cccc2F)oc1-c1ccc(N2CCNCC2)cc1` [Example G-3, 2-(2,6-difluorophenyl)-5-(4-(piperazin-1-yl)phenyl)oxazole-4-carboxamide], the pIC50 in test [1], in test [2], in test [3], in test [4] and in test [5] was above 5.00 each time.
Regarding `CN1CCN(C(=O)c2ccc(Nc3oc(-c4c(F)cccc4F)nc3C(N)=O)cc2)CC1` [Example Q-14, 2-(2,6-difluorophenyl)-5-(4-(4-methylpiperazine-1-carbonyl)phenylamino) oxazole-4-carboxamide], the pIC50 in test [1], in test [2], in test [3], in test [4] and in test [5] was above 5.00 in each case.
Take `CS(=O)(=O)c1ccc(Nc2oc(-c3c(F)cccc3F)nc2C(N)=O)cc1` [Example Q-3, 2-(2,6-difluorophenyl)-5-(4-(methylsulfonyl)phenylamino)oxazole-4-carboxamide]: the pIC50 in test [1], in test [2], in test [3], in test [4] and in test [5] was above 5.00 each time.
For the compound `NC(=O)c1nc(-c2cccc3[nH]ccc23)oc1-c1ccc(N2CCNCC2)cc1` [Example M-12, 2-(1H-indol-4-yl)-5-(4-(piperazin-1-yl)phenyl)oxazole-4-carboxamide], the pIC50 in test [1], in test [2], in test [3], in test [4] and in test [5] was above 5.00 throughout.
`CN(C)S(=O)(=O)c1ccc(Nc2oc(-c3c(F)cccc3F)nc2C(N)=O)cc1` [Example Q-26, 2-(2,6-difluorophenyl)-5-(4-(N′,N′-dimethylsulfonamide)phenylamino)oxazole-4-carboxamide]: the pIC50 in test [1], in test [2], in test [3] and in test [5] was above 5.00 in each case.
As for `CCN(CCCOc1ccc2c(Nc3cc(CC(=O)Nc4cccc(F)c4)n[nH]3)ncnc2c1)CCOP(=O)(O)O` [AZD1152], in test [7] (HL-60 xenograft), the “complete tumour regression (animals)” value is given as 8 of 11. In addition, in test [7] (dosed over 48 h via sub-cutaneous mini-pump infusion, all xenograft models), the “inhibition of tumour growth” value is on record as 55% to 100.
`NC(=O)c1nc(Nc2c(F)cccc2F)oc1-c1ccc(N2CCNCC2)cc1` [Example R-13, 2-(2,6-difluorophenylamino)-5-(4-(piperazin-1-yl)phenyl)oxazole-4-carboxamide]: the pIC50 in test [1], in test [2], in test [3], in test [4] and in test [5] was above 5.00 each time.
With `CNC(=O)N1CCN(c2ccc(Nc3oc(-c4c(F)cccc4F)nc3C(N)=O)cc2)CC1` [Example J-3, 4-(4-(4-carbamoyl-2-(2,6-difluorophenyl)oxazol-5-ylamino)phenyl)-N-methylpiperazine-1-carboxamide], the pIC50 in test [1], in test [2], in test [4] and in test [5] was above 5.00 each time.
As to `CN1CCN(c2ccc(Nc3oc(-c4c(F)cccc4F)nc3C(N)=O)cc2)CC1` [Example Q-7, 2-(2,6-difluorophenyl)-5-(4-(4-methylpiperazin-1-yl)phenylamino)oxazole-4-carboxamide], the pIC50 in test [1], in test [2], in test [4] and in test [5] was above 5.00 in each case.
